The text below walks through data of the OligoGym collection.

Where “and” joins values, the source holds several entries; their conditions need not be identical. Equal values may be shown once. After the bases stand the sugars from the 5' end (letter, count) and the backbone: PS all phosphorothioate, else s phosphorothioate and o phosphodiester by linkage. Methylation of C is not given here. e = 2'-O-(2-methoxyethyl) (MOE); k = constrained ethyl (cEt); d = 2'-deoxy (DNA)

The series concerns the target IRF4. To be noted: ASO.

“GCATTTTATCATCCGA (sugars kkdddddddddkdkdk, PS)”: where the note is “MM.1R, 1 µM”, the target mRNA inhibition stood at 16%. As to TGGTATTTTTCCGTTC (sugars k3 d10 k3, PS), the target mRNA inhibition stood at 6% (MM.1R, 0.0625 µM); 13% (MM.1R, 0.074 µM); 6% (MM.1R, 0.222 µM); 20% (MM.1R, 0.25 µM); 24% (MM.1R, 0.666 µM); 39% (MM.1R, 1 µM). For the same sequence, the target mRNA inhibition (MM.1R, 2 µM) turned out to be 51%; the target mRNA inhibition (MM.1R, 4 µM) was 73%; the target mRNA inhibition (SK-MEL-28, 4 µM) stood at 69%. With TGATGTGATAGCTGAG (sugars k3 d10 k3, PS), the target mRNA inhibition (MM.1R, 1 µM) turned out to be 59%. As to CCTGGCGGCCTCCACG (sugars k3 d10 k3, PS), where the note is “SK-MEL-28, 4 µM”, the target mRNA inhibition was -31%.

For the sequence TTAGCAATTCCTGTTG (sugars k3 d10 k3, PS), the target mRNA inhibition (SK-MEL-28, 4 µM) came out at 20%. Same read-out and setting: the same measure for CCAATAGTCTAGCTGG (sugars k3 d10 k3, PS): 19%.

Regarding “GACACTTTTAGAGAGG (sugars kddddddddddkekek, PS)”, for the setting “MM.1R, 1 µM”, the target mRNA inhibition worked out at 23%. Turning to AACGCAAGTCTGAATT (sugars k3 d10 k3, PS), for the setting “MM.1R, 1 µM”, the target mRNA inhibition was 3%. Regarding CAGCAAAACGCAGAGC (sugars k3 d10 k3, PS), under “SK-MEL-28, 4 µM”, the target mRNA inhibition amounted to 54%.

As for GGCGACCCCGTCGCAG (sugars k3 d10 k3, PS), the target mRNA inhibition (SK-MEL-28, 4 µM) was 30%. Take TGTCCAGCTGGCTCCG (sugars k3 d10 k3, PS): the target mRNA inhibition (SK-MEL-28, 4 µM) came to 39%. In the case of GTGATAGGTATACTTA (sugars k3 d10 k3, PS), where the note is “SK-MEL-28, 4 µM”, the target mRNA inhibition was 65%. As to “CGTGTGCTTGCCAAGC (sugars kdddddddddkekeke, PS)”, the target mRNA inhibition (MM.1R, 1 µM) was 24% and 11%.

ACCTGCTGGCAGTTCT (sugars k3 d10 k3, PS): the target mRNA inhibition (SK-MEL-28, 4 µM) is 61%.

As to CACGGACGGAGGCGGC (sugars k3 d10 k3, PS), the target mRNA inhibition (SK-MEL-28, 4 µM) worked out at 18%.

With GCGGACACGCCCGACC (sugars k3 d10 k3, PS), the target mRNA inhibition (SK-MEL-28, 4 µM) was determined as 15%. In the case of TCAGAATTTAGTTAGT (sugars k3 d10 k3, PS), where the note is “SK-MEL-28, 4 µM”, the target mRNA inhibition was 33%. In the case of TGTATTACTCTTAGGC (sugars k3 d10 k3, PS), the target mRNA inhibition was 7% (MM.1R, 0.0625 µM); 21% (MM.1R, 0.25 µM); 65% and 41% (MM.1R, 1 µM); 68% (MM.1R, 4 µM).

Consider “CTGTTACCGATGCTTC (sugars k2 d9 e3 k2, PS)”, for which the target mRNA inhibition (MM.1R, 1 µM) was 64% and 56%. With TCGGAGCTGAGGGCAG (sugars k3 d10 k3, PS), the target mRNA inhibition (SK-MEL-28, 4 µM) was determined as 18%. On to GTCACTTACACCCAGA (sugars k3 d10 k3, PS), for which the target mRNA inhibition (SK-MEL-28, 4 µM) worked out at 52%. Take TCCCTTAGGATAATAT (sugars k3 d10 k3, PS): the target mRNA inhibition (SK-MEL-28, 4 µM) came out at 48%. As to “GACACTTTTAGAGAGG (sugars kkdddddddddkdkdk, PS)”, the target mRNA inhibition (MM.1R, 1 µM) amounted to 14%. Consider ATATGGCTAAACCTGG (sugars k3 d10 k3, PS), for which, where the note is “MM.1R, 1 µM”, the target mRNA inhibition was found to be 18%.

Regarding TGCTGAACCCCACAGG (sugars k3 d10 k3, PS), the target mRNA inhibition (SK-MEL-28, 4 µM) is 33%. ATGCGGAGGTTCCTTG (sugars k3 d10 k3, PS): the target mRNA inhibition (MM.1R, 1 µM) was 47% and 52%. Regarding CCGCGAAGGCTCCTAC (sugars k3 d10 k3, PS), where the note is “SK-MEL-28, 4 µM”, the target mRNA inhibition is 14%. With “ATTATATACTGGTTGG (sugars kkdddddddddkekek, PS)”, the target mRNA inhibition (MM.1R, 1 µM) worked out at 52%. For GGATGGAACAGTAACT (sugars k3 d10 k3, PS), the target mRNA inhibition (SK-MEL-28, 4 µM) came out at 52%.

In the case of “CTGCTTGAGGTTTTCC (sugars k3 d9 k3 e1, PS)”, the target mRNA inhibition runs as follows: (MM.1R, 0.074 µM) 18%; (MM.1R, 0.222 µM) 36%; (MM.1R, 0.666 µM) 60%; (MM.1R, 1 µM) 65%; (MM.1R, 2 µM) 82%.

Regarding ACAGGGTGCTCCTGAG (sugars k3 d10 k3, PS), where the note is “SK-MEL-28, 4 µM”, the target mRNA inhibition is 23%. Same read-out and setting: as for GAGAAGCATATTCCAA (sugars k3 d10 k3, PS), the figure is 57%; as for CTCGGCCGCCGCCCTC (sugars k3 d10 k3, PS), 37%. GAGCCAGAGCAGTAAA (sugars k3 d10 k3, PS): for the setting “MM.1R, 1 µM”, the target mRNA inhibition was -2%. In the case of TTATGTTAGCCAATTC (sugars k3 d10 k3, PS), the target mRNA inhibition (MM.1R, 1 µM) was 9% and 22%. On to TGGCACAGACATACCT (sugars k3 d10 k3, PS), for which the target mRNA inhibition (SK-MEL-28, 4 µM) was 38%. For the sequence CGGTCAGCAGAACCAC (sugars k3 d10 k3, PS), the target mRNA inhibition (MM.1R, 1 µM) is -8%.

TCTTTAAAATATCGCC (sugars k3 d10 k3, PS): the target mRNA inhibition (MM.1R, 1 µM) is -45%. For GAAATCACGAGGTTGC (sugars k3 d10 k3, PS), the target mRNA inhibition reads like this: (MM.1R, 0.0625 µM) -6%; (MM.1R, 0.074 µM) -3%; (MM.1R, 0.222 µM) 16%; (MM.1R, 0.25 µM) 9%; (MM.1R, 0.666 µM) 22%; (MM.1R, 1 µM) 32%. In addition, the target mRNA inhibition by setting is: (MM.1R, 2 µM) 52%; (MM.1R, 4 µM) 64%; (SK-MEL-28, 4 µM) 62%. Take CTGCGGGTCCTCCAGG (sugars k3 d10 k3, PS): the target mRNA inhibition (SK-MEL-28, 4 µM) amounted to 20%.

On to AGGCACTTACTAGGTG (sugars k3 d10 k3, PS), for which the target mRNA inhibition (SK-MEL-28, 4 µM) is 54%. Take GAACCACAAGCAGTGA (sugars k3 d10 k3, PS): the target mRNA inhibition (MM.1R, 1 µM) is -32%. GGTGAGCACCGCGCCG (sugars k3 d10 k3, PS): the target mRNA inhibition (SK-MEL-28, 4 µM) was -8%. In the case of GTCTCAGTTTGAAGCA (sugars k3 d10 k3, PS), the target mRNA inhibition (SK-MEL-28, 4 µM) is 69% and 74%. Take CCGGTAGAGTGAGATG (sugars k3 d10 k3, PS): the target mRNA inhibition (MM.1R, 1 µM) was -3%. As for TCTCCCACACCAGCCC (sugars k4 d8 k4, PS), the target mRNA inhibition (SK-MEL-28, 4 µM) amounted to 25%. As to CACAGAGGACTTCGGG (sugars k3 d10 k3, PS), the target mRNA inhibition (SK-MEL-28, 4 µM) came out at 49%. On to GCCCACATAATCCAGT (sugars k3 d10 k3, PS), for which, under “SK-MEL-28, 4 µM”, the target mRNA inhibition was 22%.

CAGATAACGAGGTGCC (sugars k3 d10 k3, PS): the target mRNA inhibition (SK-MEL-28, 4 µM) worked out at 30%. For the sequence ATGTAGTTGTGAACCT (sugars k3 d10 k3, PS), the target mRNA inhibition (SK-MEL-28, 4 µM) amounted to 39%. On to CTGCAGGGTAATTTAG (sugars k3 d10 k3, PS), for which, where the note is “SK-MEL-28, 4 µM”, the target mRNA inhibition came to 34%. Take TTGCATGGCTAATGAA (sugars k3 d10 k3, PS): the target mRNA inhibition (SK-MEL-28, 4 µM) was 42%. On to GTCCAGAGTCTTCAGA (sugars k3 d10 k3, PS), for which the target mRNA inhibition (SK-MEL-28, 4 µM) amounted to 6%. Consider GTCACCTGGCAACCAT (sugars k3 d10 k3, PS), for which the target mRNA inhibition (SK-MEL-28, 4 µM) was 41%. Take TAATATAGTTGTCTGG (sugars k3 d10 k3, PS): for the setting “SK-MEL-28, 4 µM”, the target mRNA inhibition stood at 40%. Turning to ACTGTTACCGATGCTT (sugars k3 d10 k3, PS), the target mRNA inhibition was -11% (MM.1R, 0.0625 µM); 4% (MM.1R, 0.25 µM); 43% and 25% (MM.1R, 1 µM); 65% (MM.1R, 4 µM). As for TTTATAACCGGTAGAG (sugars k3 d10 k3, PS), the target mRNA inhibition (SK-MEL-28, 4 µM) amounted to 54%. For “GGCACATCAATGTTTT (sugars kddddddddddkekek, PS)”, for the setting “MM.1R, 1 µM”, the target mRNA inhibition is 28% and 25%.

On to TGTGTCAAAGAGCTTG (sugars k3 d10 k3, PS), for which the target mRNA inhibition (SK-MEL-28, 4 µM) was found to be 22%.
